6 compounds from patent publication US20120022048A1, “Anti-proliferative substituted pyrazolo[3,4-d]pyrimidines derivatives (SPP) to inhibit immune activation, virus replication and tumor growth” (priority 2010, published 2012) can be followed below.

Type in all cases: cell-based
The subject of assay [1] is HIV-1 NL 4.3. As to the kind of experiment: HIV-1 replication in activated T cells (PBMC, p24 Ag ELISA). To be noted: for anti-HIV activity in activated T cells (in words): SPPs 10 μM, compared with HU 100 μM, HU+ddI or untreated control; for HIV activated cells (% p24 compared to not treated control): activated T cells, 7 days, SPPs and Imatinib 10 μM, HU 100 μM, ddI 2 μM; for Antiviral activity in activated cells: class symbol, Table 6. On the procedure:
The experimental setup described below allows us to detect direct antiviral activity of a compound.
Human PBMC, obtained from healthy, normal donors, were stimulated for two days with PHA 5 μg/ml. Then cells were infected with HIV-1 NL 4.3, IL-2 was added (20 U/ml), cells were plated (10^5 cells per well in 200 μl) and drug treatment started. […] The control was left untreated. After 7 days of incubation at 37° C. supernatants were harvested and HIV-1 p24 Ag was measured by ELISA.
Background: An ELISA detects its analyte on a solid surface through an enzyme-linked reagent.

Assay [2] concerns primary human CD4 T-lymphocytes. Put plainly: Cell hyperproliferation in primary T cells (CFSE staining, mitotic index). Conditions: for mitotic index %: % of not treated control (100%), day 10, HU 100 μM; for mitotic index % / anti-proliferative activity (in words): SPPs 10 μM, Imatinib 10 μM; for anti-proliferative activity (in words): compared with HU 100 μM, HU+ddI or untreated control; for Anti-proliferative capacity: class symbol, Table 6. On the procedure:
We built up an experimental model using primary T cells to study the activity of the compounds on induced hyperproliferation of cells, which is a characteristic of both chronic viral diseases and cancer including HIV and leukemia.
(§1) Unstimulated (quiescent/resting, day 0 to 5) primary human CD4 T-lymphocytes were obtained by magnetic bead separation from healthy, normal donors. After five days in culture, cells were activated with PHA (5 μg/ml) to induce hyperproliferation then, at day 7, IL-2 (20 U/ml) was added (stimulated, day 6 to 10). All available compounds were tested at a concentration of 10 μM. […] At day 10, cells were harvested. Proliferation of T cells, cultured as described above, was studied by staining the cells with carboxyfluorescein diacetate-succinimidyl ester (CFSE) at day 0 (immediately after infection). For data analysis, the mitotic index (M) was used, calculating the sum of mitotic events at each proliferation cycle. To extract a relative number, M was normalized to the total number of cells acquired using the equation M=Σ[(Xn(T)−Xn(T)/2^n)], that gives the number of mitotic events from the experimentally obtained values of the proportion of T cells under each division peak n (Xn) and the total T cells (T). To study the effect of the compounds on apoptosis T cells were cultured as described above and at day 10 cells were stained with Annexin V and 7-AAD, in order to determine the percentage of total apoptotic events.

For assay [3] the test system is unchanged. Put plainly: Apoptosis in primary CD4 T cells (Annexin V and 7-AAD staining). To be noted: SPPs 10 μM; for apoptotic effect (in words): compared with HU 100 μM, HU+ddI or untreated control; for apoptosis %: total apoptotic events compared to untreated control, day 10, Imatinib 10 μM, HU 100 μM, ddI 2 μM. On the procedure:
as §1
We determined the capacity of the compounds to affect the percentages of apoptotic events after 10 days of treatment in primary CD4 T cells.

Assay [4] deals with HIV-1 NL 4.3. Put plainly: HIV-1 replication in quiescent CD4 T cells (p24 Ag ELISA). To be noted: for anti-HIV activity in quiescent cells (in words) / HIV quiescent cells (percentage p24 compared to the untreated control): SPPs 10 μM; for anti-HIV activity in quiescent cells (in words): compared with HU 100 μM, HU+ddI or untreated control; for HIV quiescent cells (percentage p24 compared to the untreated control): quiescent CD4 T cells, day 10, HU 100 μM, HU 100 μM+ddI 2 μM; for Antiviral activity in quiescent cells: class symbol, Table 6. On the procedure:
Unstimulated (quiescent/resting, day 0 to 5) human CD4 T-lymphocytes, obtained by magnetic bead separation from healthy, normal donors, were infected with HIV-1 NL 4.3. After five days in culture, cells were stimulated with PHA (5 μg/ml) to induce proliferation, and then, at day 7, IL-2 (20 U/ml) was added (stimulated, day 6 to 10). All available compounds were tested at a concentration of 10 μM. HU 100 μM and HU 100 μM+ddI 2 μM were also employed as comparators and the negative control was left untreated. At day 10, cells and supernatants were harvested and HIV-1 p24 Ag was measured by ELISA. HIV replication was expressed as percentage p24 compared to the untreated control.

Regarding `CSc1nc(Nc2cccc(Cl)c2)c2cnn(CC(Cl)c3ccc(F)cc3)c2n1` (centres unmarked) [VS1-022], in assay [1], the “anti-HIV activity in activated T cells (in words)” value is given as “effective against HIV” and the “HIV activated cells (% p24 compared to not treated control)” value amounted to 37.1 ± 19.8%. In addition, in assay [2], the mitotic index % was found to be 10.4 ± 11.4% and the “anti-proliferative activity (in words)” value is listed as “as anti-proliferative or even better than HU”. In assay [3], the “apoptotic effect (in words)” value was “proapoptotic” and the apoptosis % was found to be 178.0 ± 25.7%. In addition, in assay [4], the “anti-HIV activity in quiescent cells (in words)” value was “effective against HIV” and the “HIV quiescent cells (percentage p24 compared to the untreated control)” value turned out to be 5.4 ± 3.1%.

Regarding `CCCNc1nc(N(C)C)nc2c1cnn2CC(Cl)c1ccccc1` (centres unmarked) [VS1-023], the “HIV activated cells (% p24 compared to not treated control)” value in assay [1] is on record as 36.6 ± 15.1%. The same compound yielded a mitotic index % in assay [2] of 33.2 ± 6.5%. For the same compound, in assay [3], the “apoptotic effect (in words)” value is “not proapoptotic” and the apoptosis % stood at 116.0 ± 14.7%. Moreover, the “HIV quiescent cells (percentage p24 compared to the untreated control)” value in assay [4] is listed as 8.7 ± 5.6%.

For `CCCCNc1nc(SC)nc2c1cnn2CC(Cl)c1ccccc1` (centres unmarked) [VS1-024], in assay [1], the “HIV activated cells (% p24 compared to not treated control)” value turned out to be 10.1 ± 7.4% and the “Antiviral activity in activated cells” value was “+++ (excellent (+++, greater than 70% activity))”. Also, in assay [2], the mitotic index % is 45.5 ± 10.9%; the “anti-proliferative activity (in words)” value was “equal to or a little less anti-proliferative than HU”; the Anti-proliferative capacity result is listed as “++ (good (++, 50 to 70% activity))”. For the same compound, in assay [3], the “apoptotic effect (in words)” value is “not proapoptotic” and the apoptosis % is recorded as 126.7 ± 23.9%. Further, in assay [4], the “anti-HIV activity in quiescent cells (in words)” value was “slightly less potent against HIV”; the “Antiviral activity in quiescent cells” value is “+++ (excellent (+++, greater than 70% activity))”; the “HIV quiescent cells (percentage p24 compared to the untreated control)” value is 24.3 ± 9.4%.

For `CCCNc1nc(SCCN2CCOCC2)nc2c1cnn2CC(Cl)c1ccccc1` (centres unmarked) [VS1-025], in assay [1], the “anti-HIV activity in activated T cells (in words)” value is reported as “poor activity” and the “HIV activated cells (% p24 compared to not treated control)” value is listed as 74.2 ± 31.7%. Moreover, in assay [2], the mitotic index % came out at 61.6 ± 12.7% and the “anti-proliferative activity (in words)” value was “poor activity”. Moreover, the apoptosis % in assay [3] is given as 139.3 ± 20.8%. Besides, in assay [4], the “HIV quiescent cells (percentage p24 compared to the untreated control)” value stood at 23.6 ± 14.5%.

For `CCSc1nc(NCCc2ccccc2)c2cnn(CC(Cl)c3ccccc3)c2n1` (centres unmarked) [VS1-026], in assay [1], the “HIV activated cells (% p24 compared to not treated control)” value worked out at 19.6 ± 12.6% and the “Antiviral activity in activated cells” value is “+++ (excellent (+++, greater than 70% activity))”. In assay [2], the mitotic index % was found to be 24.9 ± 16.6%; the “anti-proliferative activity (in words)” value is listed as “equal to or a little less anti-proliferative than HU”; the Anti-proliferative capacity entry is reported as “+++ (excellent (+++, greater than 70% activity))”. Besides, in assay [3], the “apoptotic effect (in words)” value is on record as “not proapoptotic” and the apoptosis % was 135.3 ± 15.7%. Further, in assay [4], the “anti-HIV activity in quiescent cells (in words)” value is given as “slightly less potent against HIV”; the “Antiviral activity in quiescent cells” value is “++ (good (++, 50 to 70% activity))”; the “HIV quiescent cells (percentage p24 compared to the untreated control)” value was 29.3 ± 6.9%.

As to `CCSc1nc(Nc2cccc(Cl)c2)c2cnn(CC(Cl)c3ccccc3)c2n1` (centres unmarked) [VS1-027], in assay [1], the “anti-HIV activity in activated T cells (in words)” value is “good anti-HIV activity”; the “HIV activated cells (% p24 compared to not treated control)” value stood at 12.0 ± 9.5%; the “Antiviral activity in activated cells” value is “+++ (excellent (+++, greater than 70% activity))”. In addition, in assay [2], the mitotic index % was determined as 2.4 ± 1.5%; the “anti-proliferative activity (in words)” value is on record as “good anti-proliferative capacity (superior to 100 μM HU)”; the Anti-proliferative capacity entry was “+++ (excellent (+++, greater than 70% activity))”. Moreover, in assay [3], the “apoptotic effect (in words)” value is on record as “no more apoptotic than HU” and the apoptosis % amounted to 90.1 ± 33.8%. In assay [4], the “anti-HIV activity in quiescent cells (in words)” value was “good anti-HIV activity”; the “Antiviral activity in quiescent cells” value was “+++ (excellent (+++, greater than 70% activity))”; the “HIV quiescent cells (percentage p24 compared to the untreated control)” value was determined as 2.7 ± 1.6%.
